Measurements published in US20200345733A1, “Microbicidal Pyrimidine or Triazine Containing Compounds” (Janssen Sciences Ireland UC, priority 2002, published 2020).
In brackets after ≈: the same amount, converted by molar mass. Like-named read-outs stand apart in the source and are kept apart here.

Key:
HIV Ba-L = assay: Prevention of HIV Ba-L infection in MO-DC/CD4(+) T cell co-cultures (ELISA, secondary culture, PCR); format: cell-based; details: for HIV Antigen (number of positive wells) 2° Cult. / HIV proviral DNA (2° Cult.) / HIV Antigen (number of positive wells) 1° Cult.: cell-associated HIV Ba-L; for HIV Antigen (number of positive wells) 2° Cult.: 2° culture without drug, out of 6; for HIV proviral DNA (2° Cult.): PCR after secondary culture; for HIV Antigen (number of positive wells) 1° Cult.: continuous drug, out of 6 microcultures; for EC50: Human immunodeficiency virus 1, BAL, T-cell, MO-DC/CD4(+) T cells, read-out: EC50 (inhibiting 50% of HIV Ba-L replication)
Procedure: For experiments with CEM T cells, we used the lymphotropic SI/X4 HIV strain HTLV-IIIB, originally obtained from R. C. Gallo and M. Popovic (NIH, Bethesda, Md.). For experiments with monocyte-derived dendritic cells (MO-DC), the monotropic NSI/R5 HIV strain Ba-L, kindly provided by the NIH AIDS Research and Reference Reagent Program (Rockville, Md) was used. Ba-L stocks were grown and tittered on PHA/IL-2-stimulated peripheral blood mononuclear cells (PBMC) in complete medium, containing RPMI-1640 (Bio-Whittaker, Verviers, Belgium) and 10% bovine calf serum (Hyclone, Utah, US) (Peden K. Virological and Molecular Genetic Techniques for Studies of Established HIV Isolates. 1995, 21-45). The supernatant of these cultures were directly used as cell-free virus to infect MO-DC. To prepare cell-associated HIV Ba-L, non-stimulated PBMC (2×10^6 cells/ml) were incubated overnight with 10^−2 MOI (=multiplicity of infection) of HIV Ba-L in complete medium. Afterwards, cells were extensively washed, frozen in liquid nitrogen and thawed on the day of infection.
HIV antigen was detected using an in-house developed ELISA assay, of which the characteristics have been described (Beirnaert E, Willems B, Peeters M, Bouckaert A, Heyndrickx L, Zhong P et al. Design and Evaluation of an in-House HIV-1 (Group M and O), SIVmnd and SIVcpz Antigen Capture Assay. J Virol Methods 1998, 73: 65-70). The lower detection limit is about 200 pg/ml and the upper limit is about 25,000 pg/ml, as determined using a standard curve of Ba-L stock dilutions with known p24 content. The 50% Effective Concentration (EC50) was calculated by plotting HIV Ag concentration against drug concentration, followed by regression analysis on the linear part of the curve,
Cell-free HIV Ba-L was pre-incubated with a serial dilution of drug, ranging from 10,000 to 0.1 nM (final concentration), for 1 hour at 37° C. MO-DC were infected with drug-treated HIV at a multiplicity of infection (MOI) of 10^−3. After 2 hours (at 37° C.), MO-DC were washed (6×) and suspended at 4×10^5 cells/ml. 50 μl of MO-DC were dispensed in a 96-well cup, together with 50 μl of autologous CD4(+) T cells (2×10^6 cells/ml) and 100 μl of complete medium or 100 μl of drug (at the same concentration as for the pre-incubation). Half of the culture medium was refreshed twice weekly with complete medium, with or without drug. After 2 weeks of primary culture, supernatants were analysed by ELISA and cells were used for secondary cultures to check viral rescue. For experiments with cell-associated HIV, a similar set-up was used except that pre-incubated, cell-associated virus was washed before addition of MO-DC/CD4(+) T cells and remained present during the MO-DC/CD4(+) T cell co-culture.
To evaluate the effect of a 24-hours treatment, MO-DC and autologous CD4(+) T cells were suspended in complete medium at 4×10^4, resp. 2×10^5 cells/ml. Fifty μl of MO-DC and 50 μl of CD4(±) T cells were dispensed in a 96-well cup, together with 50 μl of cell-associated or cell-free virus (10^−3 MOI) and 50 μl of complete medium or 50 μl of a serial dilution of drug. After 24-hours (37° C., 5% CO2), cells were washed (3×) and incubated for 2 weeks. Half of the culture medium was refreshed twice weekly with complete medium (without drug). After 2 weeks of primary culture, supernatants were analysed by ELISA and cells were used for secondary cultures to check viral rescue.
PBMC were isolated from donor buffy coats and cultured for 2 days in complete medium supplemented with 5 ng/ml IL-2 (Immunosource, Zoersel, Belgium) and 0.5 μg/ml PHA (Murex, Dartford, England). After 2 weeks of primary culture, MO-DC/CD4(+) T cell co-cultures were washed (3×) and secondary cultures were set-up by adding 1×10^5 PHA/IL-2 activated PBMC per cup. Half of the culture medium was replaced every 3-4 days with IL-2 containing medium (without drug) and supernatants as well as cells were harvested after 2 additional weeks. Supernatants were tested for HIV-Ag in ELISA. […]

HIV-1 (SF162 and 1/BX08) = assay: hu-SCID animal model of vaginal transmission of HIV; format: in vivo; details: single intravaginal 25 μl gel (carbopol 940 or HEC; 0.225, 0.0225 or 0.00225 mM) 15-20 minutes before challenge
Procedure: In order to mimic the in vivo transmission that occurs in humans, a hu-SCID animal model of vaginal transmission of HIV for the evaluation of vaginal microbicides was used (Di Fabio et al., AIDS 2001, 15, 2231-2234 Gels made up of carbopol 940 or hydroxyethyl cellulose (HEC), two water soluble polymers, were prepared containing Compound B in different concentrations (0.225 mM; 0.0225 mM or 0.00225 mM). Animals received a single intravaginal application of 25 μl of gel containing Compound B, 15-20 minutes prior to a non invasive vaginal challenge with 2×10^6 human peripheral blood lymphocytes PBL, (hu-PBL) previously infected in vitro with non-syncitium (NSI) strains of HIV-1 (SF162 and 1/BX08). Cell to cell transmission was assessed by p24 production and by quantitative PCR.

HIV-1 RF = assay: Direct antiviral activity, immobilised virus with Jurkat-tat indicator cells; format: cell-based
Lactobacillus species = assay: In vitro antibacterial activity, lactobacilli; format: cell-based; details: 33 different Lactobacillus species from recto-vaginal cultures of pregnant women; read-out: minimum inhibitory concentration (MIC50)
Source text: (§1) Compatibility with lactobacilli and normal vaginal flora is an important requirement for a vaginal microbicide. Activity on pathogens of sexual transmitted diseases is an additional advantage. In in vitro tests for antibacterial activity of compound B, the following susceptibilities were found: • 33 different Lactobacillus species isolated from recto-vaginal cultures of pregnant women were studied.

Hemophilus ducreyi = assay: In vitro antibacterial activity, Hemophilus ducreyi; format: cell-based
Source text: as §1

[1] = Continuous treatment, Cell-associated HIV
[2] = Continuous treatment, Cell-free HIV

Structure (SMILES): Cc1cc(C)c(Nc2ccnc(Nc3ccc(C#N)cc3)n2)c(C)c1 [compound B, 4-[[4-[(2,4,6-trimethylphenyl)amino]-2-pyrimidinyl]amino]benzonitrile]
- HIV Antigen (number of positive wells) 2° Cult. (HIV Ba-L; 10 nM in 1° culture): 3
- HIV proviral DNA (2° Cult.) (HIV Ba-L; 10 nM): 4.74 Log(number of DNA copies/10^6 cells)
- HIV Antigen (number of positive wells) 1° Cult. (HIV Ba-L; 10 nM): 0
- HIV Antigen (number of positive wells) 2° Cult. (HIV Ba-L; 100 nM in 1° culture): 0
- HIV proviral DNA (2° Cult.) (HIV Ba-L; 100 nM): Neg
- HIV Antigen (number of positive wells) 1° Cult. (HIV Ba-L; 100 nM): 0
- HIV Antigen (number of positive wells) 2° Cult. (HIV Ba-L; 1,000 nM in 1° culture): 0
- HIV proviral DNA (2° Cult.) (HIV Ba-L; 1,000 nM): Neg
- HIV Antigen (number of positive wells) 1° Cult. (HIV Ba-L; 1,000 nM): 0
- HIV Antigen (number of positive wells) 2° Cult. (HIV Ba-L; 10,000 nM in 1° culture): 0
- HIV proviral DNA (2° Cult.) (HIV Ba-L; 10,000 nM): Neg
- HIV Antigen (number of positive wells) 1° Cult. (HIV Ba-L; 10,000 nM): 0
- Conc. that prevents replicative HIV infection (ELISA and PCR after 2° culture) (HIV Ba-L; 24 Hours treatment, Cell-associated HIV): 1,000 nM
- Conc. that prevents replicative HIV infection (ELISA and PCR after 2° culture) (HIV Ba-L; 24 Hours treatment, Cell-free HIV): 100 nM
- Conc. that prevents replicative HIV infection (ELISA and PCR after 2° culture) (HIV Ba-L; [1]): 100 nM
- Conc. that prevents replicative HIV infection (ELISA and PCR after 2° culture) (HIV Ba-L; [2]): 10 nM
- EC50 (HIV Ba-L; 24 h, 24 hours treatment, Cell-associated HIV): 63 nM
- EC50 (HIV Ba-L; 24 h, 24 hours treatment, Cell-free HIV): 42 nM
- EC50 (HIV Ba-L; [1]): < 1 nM
- EC50 (HIV Ba-L; [2]): < 0.1 nM
- Concentration that blocked infection in the primary cultures (HIV Ba-L; cell-associated virus, continuous treatment, primary culture only): 10 nM
- Systemic infection after vaginal challenge with HIV-1 infected hu-PBL (p24, quantitative PCR) (HIV-1 (SF162 and 1/BX08)): systemic infection was successfully inhibited
- Concentration providing protection of infection (HIV-1 RF; virus pretreated prior to addition of cells, without removal of the compound): 10 nM
- Concentration providing protection of infection (HIV-1 RF; virus treated 1 hour at 37° C., compound removed by washing, co-culture 8 days): 100 nM
- MIC50 (Lactobacillus species): > 32 µg/mL
- MIC50 (Hemophilus ducreyi): 1 µg/mL (≈ 3.04 µM)
- MIC50 (Hemophilus ducreyi; second value): 2 µg/mL (≈ 6.07 µM)
